Target: T1, fibrinogen receptor (GPIIb-IIIa) (Homo sapiens, UniProt P05106+P08514)
T1 construct: Ten units of outdated, washed human platelets (obtained from Red Cross) were lyzed; from tissue; host or cells: outdated human platelets (Red Cross); GPIIb-IIIa purified on lentil lectin sepharose and incorporated in liposomes
Test: Competitive binding to GPIIb-IIIa ([3H]-SK&F-107260 displacement, GPIIb-IIIa liposomes)
Conditions: purified human platelet GPIIb-IIIa in liposomes; 4.5 nM [3H]-SK&F-107260; Ki from IC50 by Cheng and Prusoff equation; read-out: Ki, inhibition of [3H]-SK&F 107260 binding
Experimental: Ten units of outdated, washed human platelets (obtained from Red Cross) were lyzed by gentle stirring in 3% octylglucoside, 20 mM Tris-HCl, pH 7.4, 140 mM NaCl, 2 mM CaCl2 at 4° C. for 2 h. The lysate was centrifuged at 100,000 g for 1 h. The supernatant obtained was applied to a 5 mL lentil lectin sepharose 4B column (E.Y. Labs) preequilibrated with 20 mM Tris-HCl, pH 7.4, 100 mM NaCl, 2 mM CaCl2, 1% octylglucoside (buffer A). After 2 h incubation, the column was washed with 50 mL cold buffer A. The lectin-retained GPIIb-IIIa was eluted with buffer A containing 10% dextrose. All procedures were performed at 4° C. The GPIIb-IIIa obtained was >95% pure as shown by SDS polyacrylamide gel electrophoresis. […]
The binding to the fibrinogen receptor (GPIIb-IIIa) was assayed by an indirect competitive binding method using [^3 H]-SK&F-107260 as an RGD-type ligand. […] Bound radioactivity remaining on the filters was counted in 1.5 mL Ready Solve (Beckman Instruments, Fullerton, Calif.) in a Beckman Liquid Scintillation Counter (Model LS6800), with 40% efficiency. Nonspecific binding was determined in the presence of 2 μg unlabeled SK&F-107260 and was consistently less than 0.14% of the total radioactivity added to the samples. […]
Competition binding data were analyzed by a nonlinear least-squares curve fitting procedure. […]

T1 sequence (P08514 32-887 limits assumed): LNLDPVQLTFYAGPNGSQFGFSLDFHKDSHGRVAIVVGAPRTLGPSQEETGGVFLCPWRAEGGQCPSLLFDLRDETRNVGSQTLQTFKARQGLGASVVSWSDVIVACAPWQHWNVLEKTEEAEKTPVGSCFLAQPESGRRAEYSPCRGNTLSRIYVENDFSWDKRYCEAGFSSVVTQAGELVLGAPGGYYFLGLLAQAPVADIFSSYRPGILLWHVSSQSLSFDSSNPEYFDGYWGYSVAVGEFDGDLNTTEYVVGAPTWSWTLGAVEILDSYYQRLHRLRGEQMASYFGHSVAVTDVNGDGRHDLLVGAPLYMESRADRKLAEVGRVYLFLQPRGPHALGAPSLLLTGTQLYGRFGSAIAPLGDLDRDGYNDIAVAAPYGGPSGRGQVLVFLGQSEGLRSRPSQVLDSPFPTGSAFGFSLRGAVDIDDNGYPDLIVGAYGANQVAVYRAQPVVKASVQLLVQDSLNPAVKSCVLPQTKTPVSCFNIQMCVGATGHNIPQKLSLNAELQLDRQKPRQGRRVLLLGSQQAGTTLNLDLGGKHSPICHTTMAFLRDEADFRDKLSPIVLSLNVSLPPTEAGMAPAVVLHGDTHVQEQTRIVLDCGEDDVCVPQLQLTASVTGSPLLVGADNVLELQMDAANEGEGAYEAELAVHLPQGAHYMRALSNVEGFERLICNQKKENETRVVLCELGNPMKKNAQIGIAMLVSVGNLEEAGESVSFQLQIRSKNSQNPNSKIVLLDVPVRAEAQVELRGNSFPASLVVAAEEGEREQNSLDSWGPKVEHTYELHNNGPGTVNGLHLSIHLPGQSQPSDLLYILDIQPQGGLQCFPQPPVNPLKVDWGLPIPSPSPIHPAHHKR
T1 sequence (P08514 891-1039 limits assumed): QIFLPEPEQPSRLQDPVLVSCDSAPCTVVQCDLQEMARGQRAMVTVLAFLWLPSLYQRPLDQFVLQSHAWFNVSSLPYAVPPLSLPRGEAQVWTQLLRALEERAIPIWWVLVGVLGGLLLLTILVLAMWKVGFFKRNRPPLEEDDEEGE
T1 sequence (P05106 27-788): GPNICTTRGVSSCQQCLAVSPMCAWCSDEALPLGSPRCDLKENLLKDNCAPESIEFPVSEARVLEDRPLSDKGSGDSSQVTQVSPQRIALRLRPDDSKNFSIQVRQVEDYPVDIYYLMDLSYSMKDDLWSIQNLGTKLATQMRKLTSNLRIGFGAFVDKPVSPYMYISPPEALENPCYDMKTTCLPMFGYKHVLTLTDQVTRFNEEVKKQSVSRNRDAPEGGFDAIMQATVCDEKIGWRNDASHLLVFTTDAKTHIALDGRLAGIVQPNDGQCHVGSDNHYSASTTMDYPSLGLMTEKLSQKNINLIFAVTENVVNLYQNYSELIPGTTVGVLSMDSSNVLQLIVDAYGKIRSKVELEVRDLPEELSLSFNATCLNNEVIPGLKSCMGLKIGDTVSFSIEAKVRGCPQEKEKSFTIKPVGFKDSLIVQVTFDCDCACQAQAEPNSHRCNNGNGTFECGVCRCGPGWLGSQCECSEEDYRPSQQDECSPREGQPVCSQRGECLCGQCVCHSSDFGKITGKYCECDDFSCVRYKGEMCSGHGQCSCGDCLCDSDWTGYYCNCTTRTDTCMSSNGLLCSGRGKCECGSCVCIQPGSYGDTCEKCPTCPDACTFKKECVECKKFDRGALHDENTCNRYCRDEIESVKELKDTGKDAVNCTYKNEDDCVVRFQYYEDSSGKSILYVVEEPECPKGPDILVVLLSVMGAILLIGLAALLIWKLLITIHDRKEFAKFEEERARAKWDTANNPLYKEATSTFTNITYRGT

Compound: O=C(O)CN1CCC(C(=O)Nc2ccc(N3CCNCC3)cc2)CC1 [Example 1, 4-[[[4-(1-piperazinyl)phenyl]amino]carbonyl]-1-piperidineacetic acid]
- Ki: ~5 nM
